Consider 6 molecules from patent US5053070A, “Pyrimidine derivatives, preparation processes thereof, herbicide containing the same, and herbicidal compositions containing the same along with other active ingredient” (Mitsui Toatsu Chemicals, Incorporated, priority 1988, dated 1991).

One data set has as its system narrowleaf waterplantain. Briefly: Petri dish test (Test 6). Format: in vivo. As to conditions: 336 h; seeds on filter paper, 25° C., 14 days; read-out: I80 (ppm). In a few lines:
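Narrowleaf waterplantain seeds placed on filter paper pre-treated with compound in acetone (solvent air-dried) in 9 cm Petri dishes with 10 ml water, grown at 25° C in light. Growth was scored after fourteen days as degree of damage against an untreated group.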

For the next data set, the system named is peanut. As to the kind of experiment: Upland soil application test (Test 2), crop injury. In kind it is in vivo. Particulars: 30 g ai/a, soil spray before emergence, 30 days later. The method in brief: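 Steps: fill pots with fertilized upland field soil containing uniformly mixed weed seed; sow crops and cover with 2-3 cm soil; after one day, spray the diluted wettable powder evenly over the soil at 10 l per are; assess at 30 days against untreated controls by dry weight.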

A further data set has as its system cotton. As to the kind of experiment: Upland soil application test (Test 2), crop injury. Format: in vivo. As to conditions: 30 g ai/a, soil spray before emergence, 30 days later. In a few lines:
(§1)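 Pre-emergence soil spray, greenhouse. Weed seeds mixed through upland soil; crops sown alongside. Day 1 post-sowing: wettable-powder formulation, water-diluted, applied at 10 l/are by pressure ULV sprayer. Read at 30 days as air-dried weight vs untreated pots, scored on a graded damage scale.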

The test system of a further data set is soybean. As to the kind of experiment: Upland soil application test (Test 2), crop injury. Format: in vivo. As to conditions: 30 g ai/a, soil spray before emergence, 30 days later. The method in brief: as §1
Data set [1] concerns barnyardgrass. Briefly: Treatment of soil under submerged condition, pre-emergence (Test 4). Particulars: 30 g ai/a granule, 30 days later. Format: in vivo. The method in brief: (§2)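 Scores reflect weed emergence and rice injury observed 30 days after a pre-emergence granule treatment. The granule, holding a predetermined amount of test composition, went onto submerged soil pots one day after sowing weeds and transplanting 2–3-leaf rice seedlings.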

The test system of a further data set is Sagittaria pygmaea. The description is as above. Format: in vivo. As to conditions: 30 g ai/a granule, 30 days later. In a few lines: as §2
A further data set relates to bulrush. The data set is described as above. Format: in vivo. Particulars: 30 g ai/a granule, 30 days later. The method in brief: as §2
The test system of the next data set is green foxtail. As to the kind of experiment: Upland foliar application test (Test 3). Format: in vivo. As to conditions: 30 g ai/a, foliar spray at 2-3 leaves, 30th day. In a few lines:
(§3)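 Greenhouse pots, upland soil; seedlings at 2-3 leaves. Foliar ULV spray of water-diluted emulsion, 5 l/are. Injury/damage rated 30 d after spraying.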

The next data set deals with johnsongrass. Briefly: Upland foliar application test (Test 3). Particulars: 30 g ai/a, foliar spray at 2-3 leaves, 30th day. Format: in vivo. In a few lines: as §3
The next data set deals with common lambsquarters. As to the kind of experiment: Upland foliar application test (Test 3). As to conditions: 30 g ai/a, foliar spray at 2-3 leaves, 30th day. Format: in vivo. In a few lines:
as §3

Data set [2] has as its system barnyardgrass. As to the kind of experiment: Upland foliar application test (Test 3). Format: in vivo. As to conditions: 30 g ai/a, foliar spray at 2-3 leaves, 30th day. The method in brief:
as §3

Another data set deals with foxtail meadow. Briefly: Upland foliar application test (Test 3). Format: in vivo. As to conditions: 30 g ai/a, foliar spray at 2-3 leaves, 30th day. In a few lines: as §3
For another data set, the system named is redroot pigweed. As to the kind of experiment: Upland foliar application test (Test 3). As to conditions: 30 g ai/a, foliar spray at 2-3 leaves, 30th day. In kind it is in vivo. The method in brief:
as §3

A further data set concerns large crabgrass. Briefly: Upland foliar application test (Test 3). Particulars: 30 g ai/a, foliar spray at 2-3 leaves, 30th day. Format: in vivo. The method in brief:
as §3

The test system of data set [3] is ALS (acetolactate syntase). As to the kind of experiment: ALS enzyme assay (Test 1). Format: biochemical, pea. Particulars: 1,000 ppm (0.5 mg/0.5 ml). In a few lines: (§4)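 Partially purified ALS from dark-grown pea and barnyardgrass seedlings incubated 1 h at 30° C with pyruvate, TPP, MgCl2 and FAD. Compounds tested at 1,000 ppm (0.5 mg/0.5 ml). Acetoin formed detected colorimetrically at 525 nm via creatine/α-naphthol, relative to blank and acid-stopped controls.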

The test system of data set [4] is ALS (acetolactate syntase). As to the kind of experiment: ALS enzyme assay (Test 1). Format: biochemical, barnyardgrass. As to conditions: 1,000 ppm (0.5 mg/0.5 ml). In a few lines: as §4

≈ marks a conversion by molar mass, not a printed value.

As for `COc1cc(OC)nc(Oc2ccccc2C=NOCC=Cc2ccc(Cl)c(Cl)c2)n1` [compound 31], the IC80 in the data set on narrowleaf waterplantain was 2 mg/L (≈ 4.34 µM). Besides, in the data set on peanut, the “Injury Peanut” value is 0 (91-100 (No damages)). In addition, the “Injury Cotton” value with cotton is given as 0 (91-100 (No damages)). For the same molecule, in the data set with soybean, the “Injury Soybean” value is given as 0 (91-100 (No damages)). The “Herbicidal effects Barnyardgrass” value is 3 (11-40 (Medium damages)) in the data set on barnyardgrass [1] and 4 (6-10 (Severe damages)) with barnyardgrass [2]. In the data set on Sagittaria pygmaea, the “Herbicidal effects Sagittaria Pygmaea” value was 4 (6-10 (Severe damages)). The “Herbicidal effects Bulrush” value in the data set on bulrush is reported as 3 (11-40 (Medium damages)). In the data set on green foxtail, the “Herbicidal effects Green foxtail” value was 4 (6-10 (Severe damages)). For the same molecule, in the data set on johnsongrass, the “Herbicidal effects Johnsongrass” value was 5 (0-5 (Death)). For the same molecule, the “Herbicidal effects Common lambsquarters” value in the data set with common lambsquarters is recorded as 4 (6-10 (Severe damages)). Moreover, the “Herbicidal effects Foxtail meadow” value with foxtail meadow is 4 (6-10 (Severe damages)). For the same molecule, the “Herbicidal effects Redroot pigweed” value with redroot pigweed was 3 (11-40 (Medium damages)). For the same molecule, in the data set on large crabgrass, the “Herbicidal effects Large crabgrass” value was 4 (6-10 (Severe damages)). Besides, the “Inhibitory activity (%) Pea” value in data set [3] came to 0%. For the same molecule, the “Inhibitory activity (%) Barnyardgrass” value in data set [4] came out at 90%.

Turning to `COc1cc(OC)nc(Oc2ccccc2C=NOCc2ccccc2)n1` [Compound No. 15], the IC80 in the data set on narrowleaf waterplantain turned out to be 100 mg/L (≈ 274 µM). Besides, the “Injury Peanut” value with peanut is recorded as 0 (91-100 (No damages)). Also, the “Injury Cotton” value with cotton is reported as 0 (91-100 (No damages)). The “Injury Soybean” value with soybean was 0 (91-100 (No damages)). Besides, the “Herbicidal effects Barnyardgrass” value is given as 4 (6-10 (Severe damages)) in the data set with barnyardgrass [1] and 5 (0-5 (Death)) in the data set with barnyardgrass [2]. The “Herbicidal effects Sagittaria Pygmaea” value in the data set with Sagittaria pygmaea is recorded as 3 (11-40 (Medium damages)). Also, in the data set on bulrush, the “Herbicidal effects Bulrush” value is listed as 1 (71-90 (Slight damages)). The “Herbicidal effects Green foxtail” value in the data set on green foxtail was 5 (0-5 (Death)). Further, the “Herbicidal effects Johnsongrass” value in the data set with johnsongrass is on record as 5 (0-5 (Death)). Moreover, the “Herbicidal effects Common lambsquarters” value in the data set on common lambsquarters is reported as 5 (0-5 (Death)). Further, in the data set with foxtail meadow, the “Herbicidal effects Foxtail meadow” value is 4 (6-10 (Severe damages)). Besides, the “Herbicidal effects Redroot pigweed” value in the data set on redroot pigweed is 5 (0-5 (Death)). Also, the “Herbicidal effects Large crabgrass” value in the data set on large crabgrass is recorded as 4 (6-10 (Severe damages)). The “Inhibitory activity (%) Pea” value in [3] is listed as 0%. Further, in data set [4], the “Inhibitory activity (%) Barnyardgrass” value stood at 23%.

Consider `COc1cccc(C=CCON=Cc2ccccc2Oc2nc(OC)cc(OC)n2)c1` [compound 38], for which the IC80 with narrowleaf waterplantain is 2 mg/L (≈ 4.75 µM). Besides, in the data set on peanut, the “Injury Peanut” value is listed as 0 (91-100 (No damages)). For the same molecule, the “Injury Cotton” value with cotton is reported as 0 (91-100 (No damages)). The “Injury Soybean” value with soybean is 0 (91-100 (No damages)). Besides, the “Herbicidal effects Barnyardgrass” value is on record as 4 (6-10 (Severe damages)) with barnyardgrass [1] and 5 (0-5 (Death)) with barnyardgrass [2]. For the same molecule, the “Herbicidal effects Sagittaria Pygmaea” value in the data set on Sagittaria pygmaea is 5 (0-5 (Death)). The “Herbicidal effects Bulrush” value with bulrush was 4 (6-10 (Severe damages)). Also, in the data set with green foxtail, the “Herbicidal effects Green foxtail” value was 5 (0-5 (Death)). Moreover, the “Herbicidal effects Johnsongrass” value in the data set on johnsongrass is reported as 5 (0-5 (Death)). The “Herbicidal effects Common lambsquarters” value in the data set with common lambsquarters is given as 4 (6-10 (Severe damages)). Also, the “Herbicidal effects Foxtail meadow” value in the data set on foxtail meadow is 4 (6-10 (Severe damages)). Besides, the “Herbicidal effects Redroot pigweed” value in the data set with redroot pigweed was 4 (6-10 (Severe damages)). Further, the “Herbicidal effects Large crabgrass” value in the data set on large crabgrass is reported as 5 (0-5 (Death)). Also, in data set [3], the “Inhibitory activity (%) Pea” value is on record as 0%. In data set [4], the “Inhibitory activity (%) Barnyardgrass” value is 91%.

For `C#CCON=Cc1ccccc1Oc1nc(OC)cc(OC)n1` [Compound No. 13, 0-(2-propynyl)-2-(4,6-dimethoxy-2-pyrimidinyloxy)benzaldoxime], the IC80 in the data set with narrowleaf waterplantain was found to be 5 mg/L (≈ 16 µM). The “Injury Peanut” value with peanut was 0 (91-100 (No damages)). The “Injury Cotton” value with cotton was 0 (91-100 (No damages)). Further, the “Injury Soybean” value in the data set on soybean is on record as 0 (91-100 (No damages)). For the same molecule, the figures for the “Herbicidal effects Barnyardgrass” value with barnyardgrass [1] and in the data set on barnyardgrass [2] were 4 (6-10 (Severe damages)) and 5 (0-5 (Death)), respectively. The “Herbicidal effects Sagittaria Pygmaea” value in the data set on Sagittaria pygmaea is 4 (6-10 (Severe damages)). In addition, the “Herbicidal effects Bulrush” value in the data set with bulrush is on record as 5 (0-5 (Death)). In addition, the “Herbicidal effects Green foxtail” value with green foxtail was 5 (0-5 (Death)). In addition, in the data set with johnsongrass, the “Herbicidal effects Johnsongrass” value was 5 (0-5 (Death)). The “Herbicidal effects Common lambsquarters” value with common lambsquarters is 4 (6-10 (Severe damages)). Besides, in the data set on foxtail meadow, the “Herbicidal effects Foxtail meadow” value is recorded as 5 (0-5 (Death)). Further, the “Herbicidal effects Redroot pigweed” value in the data set on redroot pigweed is 5 (0-5 (Death)). The “Herbicidal effects Large crabgrass” value in the data set on large crabgrass is listed as 5 (0-5 (Death)). Further, the “Inhibitory activity (%) Pea” value in data set [3] was 0%. In addition, the “Inhibitory activity (%) Barnyardgrass” value in [4] is recorded as 85%.

On to `COc1cc(OC)nc(Oc2ccccc2C=NOCCc2ccccc2)n1` [compound 23], for which the IC80 in the data set with narrowleaf waterplantain turned out to be 100 mg/L (≈ 264 µM). In the data set with peanut, the “Injury Peanut” value was 0 (91-100 (No damages)). The “Injury Cotton” value in the data set on cotton was 0 (91-100 (No damages)). The “Injury Soybean” value in the data set with soybean was 0 (91-100 (No damages)). In addition, the “Herbicidal effects Barnyardgrass” value is on record as 5 (0-5 (Death)) in the data set on barnyardgrass [1] and 3 (11-40 (Medium damages)) in the data set on barnyardgrass [2]. Also, the “Herbicidal effects Sagittaria Pygmaea” value in the data set with Sagittaria pygmaea is 5 (0-5 (Death)). In addition, in the data set with bulrush, the “Herbicidal effects Bulrush” value is 4 (6-10 (Severe damages)). In addition, the “Herbicidal effects Green foxtail” value in the data set with green foxtail was 4 (6-10 (Severe damages)). For the same molecule, the “Herbicidal effects Johnsongrass” value with johnsongrass is recorded as 5 (0-5 (Death)). The “Herbicidal effects Common lambsquarters” value with common lambsquarters is 3 (11-40 (Medium damages)). Moreover, the “Herbicidal effects Foxtail meadow” value in the data set on foxtail meadow is 4 (6-10 (Severe damages)). Also, the “Herbicidal effects Redroot pigweed” value in the data set on redroot pigweed is given as 3 (11-40 (Medium damages)). Also, the “Herbicidal effects Large crabgrass” value in the data set with large crabgrass is recorded as 3 (11-40 (Medium damages)). Further, the “Inhibitory activity (%) Pea” value in [3] came out at 0%. Further, the “Inhibitory activity (%) Barnyardgrass” value in data set [4] stood at 35%.

Turning to `CC#CCON=Cc1ccccc1Oc1nc(OC)cc(OC)n1` [compound 10], the IC80 with narrowleaf waterplantain amounted to 17 mg/L (≈ 51.9 µM). Besides, in the data set with peanut, the “Injury Peanut” value is 0 (91-100 (No damages)). Further, in the data set on cotton, the “Injury Cotton” value is 0 (91-100 (No damages)). The “Injury Soybean” value in the data set with soybean is 0 (91-100 (No damages)). The “Herbicidal effects Barnyardgrass” value in the data set with barnyardgrass [1] and in the data set on barnyardgrass [2] was 5 (0-5 (Death)) each time. For the same molecule, the “Herbicidal effects Sagittaria Pygmaea” value with Sagittaria pygmaea is given as 4 (6-10 (Severe damages)). Further, the “Herbicidal effects Bulrush” value in the data set with bulrush is recorded as 4 (6-10 (Severe damages)). The “Herbicidal effects Green foxtail” value in the data set on green foxtail is reported as 4 (6-10 (Severe damages)). In addition, in the data set on johnsongrass, the “Herbicidal effects Johnsongrass” value is reported as 5 (0-5 (Death)). Also, the “Herbicidal effects Common lambsquarters” value with common lambsquarters was 4 (6-10 (Severe damages)). For the same molecule, the “Herbicidal effects Foxtail meadow” value with foxtail meadow is recorded as 4 (6-10 (Severe damages)). Also, the “Herbicidal effects Redroot pigweed” value in the data set on redroot pigweed is recorded as 5 (0-5 (Death)). In addition, in the data set with large crabgrass, the “Herbicidal effects Large crabgrass” value is 5 (0-5 (Death)). Further, the “Inhibitory activity (%) Pea” value in data set [3] stood at 0%. In addition, in data set [4], the “Inhibitory activity (%) Barnyardgrass” value was determined as 55%.
